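The compound was tested at five concentrations on cells cultured in 96-well plates, with a 48-hour exposure period. GI50 = concentration required for 50% inhibition of growth.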 Activity calls are given as the source filed them. No stated cut-off is given here; in the data, active = GI50 up to about 1.1 µM and inactive = higher.
Tests used:
Test in all cases: growth of human tumour cells (NCI), 48 h
SK-MEL-28 = test system: SK-MEL-28
SK-MEL-5 = test system: SK-MEL-5
DMS-273 = test system: DMS-273
786-0 = test system: 786-0
NCI-H23 = test system: NCI-H23
OVCAR-8 = test system: OVCAR-8
HOP-92 = test system: HOP-92
MOLT-4 = test system: MOLT-4
UACC-257 = test system: UACC-257
TK-10 = test system: TK-10
U-251 = test system: U-251
SNB-75 = test system: SNB-75
SF-295 = test system: SF-295
RXF 393 = test system: RXF 393
K562 = test system: K562
M14 = test system: M14
LXFL 529 = test system: LXFL 529
HCT-15 = test system: HCT-15
CAKI-1 = test system: CAKI-1

Structure (SMILES)	GI50 (SK-MEL-28)	GI50 (SK-MEL-5)	GI50 (DMS-273)	GI50 (786-0)	GI50 (NCI-H23)	GI50 (OVCAR-8)	GI50 (HOP-92)	GI50 (MOLT-4)	GI50 (UACC-257)	GI50 (TK-10)	GI50 (U-251)	GI50 (SNB-75)	GI50 (SF-295)	GI50 (RXF 393)	GI50 (K562)	GI50 (M14)	GI50 (LXFL 529)	GI50 (HCT-15)	GI50 (CAKI-1)
COc1cccc(C=O)c1[O-].COc1cccc(C=O)c1[O-].[Zn+2]	76.7 µM (inactive)	35.2 µM (inactive)	60.5 µM (inactive)	49 µM (inactive)	79.3 µM (inactive)	43.8 µM (inactive)	21.9 µM (inactive)	33.8 µM (inactive)	33.9 µM (inactive)	> 100 µM (inactive)	38.4 µM (inactive)	42 µM (inactive)	23.3 µM (inactive)	> 100 µM (inactive)	55.3 µM (inactive)	36.3 µM (inactive)	45.3 µM (inactive)	38 µM	
O=C1NC(O)n2c(=O)[nH]c(=O)n21 (stereo not drawn)	> 100 µM (inactive)	> 100 µM (inactive)	> 100 µM (inactive)	> 100 µM (inactive)	> 100 µM (inactive)	> 100 µM (inactive)	> 100 µM (inactive)	> 100 µM (inactive)	> 100 µM (inactive)	> 100 µM (inactive)	> 100 µM (inactive)	> 100 µM (inactive)	> 100 µM (inactive)	> 100 µM (inactive)	> 100 µM (inactive)	> 100 µM (inactive)	> 100 µM (inactive)	> 100 µM	> 100 µM (inactive)
N#CC1C[C@@H]2CC3(CCC2CN1C(=O)c1ccccc1)OCCO3 (stereo partly drawn)	> 100 µM (inactive)	> 100 µM (inactive)	> 100 µM (inactive)	> 100 µM (inactive)	> 100 µM (inactive)	> 100 µM (inactive)	> 100 µM (inactive)	> 100 µM (inactive)	> 100 µM (inactive)	> 100 µM (inactive)	> 100 µM (inactive)	> 100 µM (inactive)	> 100 µM (inactive)	> 100 µM (inactive)	> 100 µM (inactive)	> 100 µM (inactive)	> 100 µM (inactive)	> 100 µM	
COc1ccccc1C1c2cc3c(cc2OC(O)(CO)C1C(=O)O)OCO3.COc1ccccc1C1c2cc3c(cc2OC2(O)COC(=O)C12)OCO3 (stereo not drawn)	> 100 µM (inactive)	> 100 µM (inactive)	> 100 µM (inactive)	> 100 µM (inactive)	> 100 µM (inactive)	> 100 µM (inactive)	> 100 µM (inactive)	70 µM (inactive)	> 100 µM (inactive)	> 100 µM (inactive)	> 100 µM (inactive)	26.9 µM (inactive)	> 100 µM (inactive)	> 100 µM (inactive)	> 100 µM (inactive)	> 100 µM (inactive)	> 100 µM (inactive)	> 100 µM	
O=c1cc(-c2ccccc2)[nH]c2c(F)ccc(F)c12	59.8 µM (inactive)	44.1 µM (inactive)	24.3 µM (inactive)	79.6 µM (inactive)	> 100 µM (inactive)	82 µM (inactive)	> 100 µM (inactive)	46.2 µM (inactive)	> 100 µM (inactive)	61.9 µM (inactive)	41.4 µM (inactive)	15 µM (inactive)	33 µM (inactive)	97.1 µM (inactive)	30.3 µM (inactive)	35.4 µM (inactive)	68.5 µM (inactive)	26.7 µM	56.6 µM (inactive)
CCOC1C(Br)Cn2c(=O)c3cc4ccccc4cc3c(=O)n2C1C (stereo not drawn)	> 100 µM (inactive)	31.1 µM (inactive)	40.6 µM (inactive)	> 100 µM (inactive)	> 100 µM (inactive)	> 100 µM (inactive)	97.7 µM (inactive)	29.4 µM (inactive)	60.4 µM (inactive)	> 100 µM (inactive)	> 100 µM (inactive)	39.4 µM (inactive)	71.8 µM (inactive)	> 100 µM (inactive)	37.6 µM (inactive)	42.5 µM (inactive)	35.8 µM (inactive)	43.6 µM	55.1 µM (inactive)
O=C1CCCCC1C1(O)C(=O)Nc2cc(F)ccc21 (stereo not drawn)	> 100 µM (inactive)	> 100 µM (inactive)	> 100 µM (inactive)	> 100 µM (inactive)	> 100 µM (inactive)	> 100 µM (inactive)	> 100 µM (inactive)	> 100 µM (inactive)	> 100 µM (inactive)	> 100 µM (inactive)	> 100 µM (inactive)	> 100 µM (inactive)	> 100 µM (inactive)	> 100 µM (inactive)	> 100 µM (inactive)	> 100 µM (inactive)	> 100 µM (inactive)	> 100 µM	> 100 µM (inactive)
Cc1cccc(C)c1NC(=O)CCCC(=O)C1CCC/C1=N\NC(=O)C(=O)NN (stereo not drawn)	> 100 µM (inactive)	> 100 µM (inactive)	> 100 µM (inactive)	> 100 µM (inactive)	> 100 µM (inactive)	> 100 µM (inactive)		> 100 µM (inactive)	> 100 µM (inactive)	> 100 µM (inactive)	> 100 µM (inactive)	> 100 µM (inactive)	> 100 µM (inactive)	24.5 µM (inactive)	> 100 µM (inactive)	> 100 µM (inactive)	> 100 µM (inactive)	> 100 µM	> 100 µM (inactive)

Source: ChEMBL document CHEMBL1201862, “PubChem BioAssay data set” (2004)
